These results are taken from patent publication US9493402B2, “Omega-aminoalkylamides of R-2-aryl-propionic acids as inhibitors of the chemotaxis of polymorphonucleate and mononucleate cells” (Dompé S.p.A., priority 2001, dated 2016).

Where a name gives a salt, the structure may show the parent alone.

In data set [1] the test system is human circulating polymorphonucleates (PMNs), C5a induced chemotaxis. As to the kind of experiment: C5a-induced chemotaxis of human PMNs (microchamber assay). The format is cell-based. Conditions: compound 10^-5 M (so in the source), C5a 1 ng/mL. How it is done:
(§1) The compounds of the invention of formula (I) were evaluated “in vitro” for their ability to inhibit chemotaxis of polymorphonucleate leukocytes (hereinafter referred to as PMNs) and monocytes, induced by the fractions of the complement C5a and C5a-desArg. For this purpose, to isolate the PMNs from heparinized human blood, taken from healthy adult volunteers, mononucleates were removed by means of sedimentation on dextrane (according to the procedure disclosed by W. J. Ming et al., J. Immunol., 138, 1469, 1987) and red blood cells by a hypotonic solution. The cell vitality was calculated by exclusion with Trypan blue, whilst the ratio of PMNs was estimated on the cytocentrifugate after staining with Diff Quick.
The fractions hr-C5a and hrC5a-desArg (Sigma) were used as stimulating agents in chemotaxis experiments, obtaining practically identical results.
Lyophilized C5a was dissolved in a volume of HBSS containing 0.2% BSA so as to obtain a stock solution having a concentration of 10^−5 M, to be diluted in HBSS to a concentration of 10^−9 M, for the chemotaxis assays.
(§2) In the chemotaxis experiments, the PMNs were incubated with the compounds of the invention of formula (I) for 15′ at 37° C. in an atmosphere containing 5% CO2.
(§3) The chemotactic activity of the C5a was evaluated on human circulating polymorphonucleates (PMNs) resuspended in HBSS at a concentration of 1.5×10^6 PMNs per ml.
(§4) During the chemotaxis assay (according to W. Falket et al., J. Immunol. Methods, 33, 239, 1980) PVP-free filters with a porosity of 5 mcm and microchambers suitable for carrying out the test were used.
[…] The wells in the lower part contain the solution of C5a or the simple carrier, those in the upper part contain the suspension in PMNs.
Inhibition of C5a-induced chemotactic activity by the individual compounds of the invention of formula (I) was evaluated by incubating the microchamber for the chemotaxis for 60 min at 37° C. in an atmosphere containing 5% CO2.

Data set [2] relates to human PMNs (rhIL-8 induced chemotaxis). As to the kind of experiment: IL-8-induced chemotaxis of human PMNs (microchamber assay). Format: cell-based. Conditions: IL-8 10 ng/mL; for inhibition at 0.01 µM: compound 10^-8 M; for inhibition at 1 µM: compound c = 10^-6 M. How it is done: as §1, §2, §3, §4
The compounds of the invention in formula (I) were evaluated at a concentration ranging between 10^−6 and 10^−10 M; for this purpose they were added, at the same concentration, both to the lower pores and the upper pores of the microchamber. The wells in the lower part contain the solution of C5a or the simple carrier, those in the upper part contain the suspension in PMNs.
The compounds of the invention were also evaluated in their ability to inhibit IL-8-induced chemotaxis of human PMNs. For this purpose, recombinant human interleukin-8 (rhIL-8, Pepro Tech) was used: the lyophilized protein was dissolved in HBSS (Hank's balanced salts solution) at the concentration of 100 mcg/mL and then diluted down to a concentration of 10 ng/mL in the chemotaxis experiments. R(−)-2-[(4′-isobutyl)phenyl]-propionyl methansulfonamide (ED50=10^−9 M) described in WO 00/24710, was used as reference standard.

The test system is the same in data set [3]. Conditions: reference standard; rhIL-8 10 ng/mL; read-out: ED50 (inhibition of IL-8-induced chemotaxis of human PMNs); cited from earlier work.

The term melting point denotes the temperature, or range, at which the solid turns liquid. With `CC(C)Cc1ccc([C@@H](C)C(=O)NCCCN2CCN(C)CC2)cc1.Cl.Cl`, the melting point is 216 to 220 °C.

As usually defined, the inhibition is the change of the read-out against control, counted positive when it falls. With `CC(C)c1cccc([C@@H](C)C(=O)NCCCN(C)C)c1` [(R) 2-(3-isopropylphenyl)-N-3-(dimethylaminopropyl)propionamide], the inhibition at 10 µM in data set [1] (1 h) and in data set [1] was 42 ± 18% each time. This molecule had an inhibition at 0.01 µM in data set [2] of 5 ± 6%. This molecule came in with an inhibition at 1 µM in data set [2] of 48 ± 2%.

`CC(C)Cc1ccc([C@@H](C)C(=O)NCCCN2CCOCC2)cc1.Cl` [(R) 2-(4-isobutylphenyl)-N-3-(N-morpholinylpropyl)propionamide.HCl] came in with a melting point of 90 to 93 °C. This molecule also registered an inhibition at 10 µM in data set [1] (1 h) of 24 ± 11%. The molecule further showed an inhibition at 0.01 µM in data set [2] of 55 ± 12%.

For `CC(C)Cc1ccc([C@@H](C)C(=O)NC2CCN(C)CC2)cc1` [(R) 2-(4-isobutylphenyl)-N-(1-methyl-piperidin-4-yl)propionamide hydrochloride], in data set [1] (1 h), testing at 10 µM gave an inhibition of 48 ± 8%. At 0.01 µM the inhibition in data set [2] was 4 ± 9%.

`CC(C)Cc1ccc([C@@H](C)C(=O)NCCCN)cc1` [(R) 2-(4-isobutylphenyl)-N-(3-aminopropyl)propionamide hydrochloride] displayed an inhibition at 10 µM in data set [1] (1 h) of 84 ± 8%. This molecule displayed an inhibition at 0.01 µM in data set [2] of 2 ± 7%.

`CC(C)Cc1ccc([C@@H](C)C(=O)NCCCN(C)C)cc1.Cl` [(R) 2-(4-isobutylphenyl)-N-(3-dimethylaminopropyl)propionamide hydrochloride]: the melting point was in the range of 95 to 98 °C. Further, the inhibition at 10 µM in data set [1] (1 h) came to 65 ± 14%. The molecule further showed an inhibition at 0.01 µM in data set [2] of 51 ± 15%.

Molecule `CC(C)Cc1ccc([C@@H](C)C(=O)NCCCCN(C)C)cc1.Cl` [(R) 2-(4-isobutylphenyl)-N-(4-dimethylaminobutyl)propionamide. HCl] yielded a melting point of 95 to 97 °C. Besides, in data set [1] (1 h), 10 µM produced 55 ± 8% inhibition. Moreover, in data set [2], the inhibition at 0.01 µM amounted to 34 ± 6%.

`CC(C)Cc1ccc([C@@H](C)C(=O)N[C@@H]2C[C@H]3CC[C@@H](C2)N3C)cc1` [(R) 2-(4-isobutylphenyl)-N-(exo-8-methyl-8-aza-bicyclo[3.2.1]oct-3-yl)propionamide hydrochloride]: the inhibition at 10 µM in data set [1] (1 h) came out at 57 ± 6%. This molecule also yielded an inhibition at 0.01 µM in data set [2] of 3 ± 8%.

As for `CC(C)Cc1ccc([C@@H](C)C(=O)NCCCN2CCCCC2)cc1.Cl` [(R) 2-(4-isobutylphenyl)-N-[3-(1-piperidinyl)propyl]propionamide hydrochloride], the melting point fell in the range of 76 to 80 °C. For the same molecule, the inhibition at 10 µM in data set [1] (1 h) was 76 ± 6%. Besides, the inhibition at 0.01 µM in data set [2] worked out at 46 ± 8%.

For `CC(C)Cc1ccc([C@@H](C)C(=O)NC(CCCCN)C(=O)O)cc1` (stereo partly drawn) [(R),(S′) 2-(4′-isobutylphenyl)-N-(1-carboxy-5-aminopentyl)propionamide hydro-chloride], the inhibition at 10 µM in data set [1] (1 h) is 49%. Moreover, at 0.01 µM the inhibition in data set [2] was 5%.

In turn, `CC(C)Cc1ccc([C@@H](C)C(=O)NCCN(C)C)cc1.Cl` [(R)-2-(4-isobutylphenyl)-N-(2-dimethylaminoethyl)propionamide.HCl] yielded a melting point of 90 to 93 °C. In addition, in data set [1] (1 h), the inhibition at 10 µM amounted to 62 ± 12%. In data set [2], this molecule yielded an inhibition at 0.01 µM of 56 ± 13%.

For the molecule `C[C@@H](C(=O)NCCCN(C)C)c1ccccc1Nc1c(Cl)cccc1Cl` [(R)-2-[2-(2,6-dichlorophenylamino)-phenyl]-N-3-(dimethylaminopropyl) propionamide], the inhibition at 10 µM in data set [1] (1 h) worked out at 41 ± 2%. Moreover, the inhibition at 10 µM in data set [1] was found to be 41 ± 2%. Further, in data set [2], the inhibition at 0.01 µM is 1 ± 13% and the inhibition at 1 µM came out at 58 ± 6%.

Molecule `C[C@@H](C(=O)NCCCN(C)C)c1cccc(C(=O)c2ccccc2)c1` [(R)-2-[(3-benzoyl)phenyl]-N-(3-dimethylaminopropyl)propionamide] registered an inhibition at 10 µM in data set [1] (1 h) of 56 ± 2%. In data set [2], this molecule yielded an inhibition at 0.01 µM of 53 ± 8%.

Consider `CC(C)Cc1ccc([C@@H](C)C(=O)NS(C)(=O)=O)cc1` [R(−)-2-[(4′-isobutyl)phenyl]-propionyl methansulfonamide], for which the EC50 in data set [3] is 1 nM.

The molecule `CC(C)Cc1ccc([C@@H](C)C(=O)NCC(=O)NCCN(C)C)cc1` [R-2-[(4′-isobutylphenyl]-N-[2-(dimethylaminoethyl)aminocarbonylmethyl]-propionamide hydrochloride] registered an inhibition at 10 µM in data set [1] (1 h) of 68 ± 4%. Further, the inhibition at 0.01 µM in data set [2] was 31 ± 6%.

The molecule `CC(C)Cc1ccc([C@@H](C)C(=O)N[C@@H](CCCN2CCCCC2)C(=O)O)cc1` [sodium salt] displayed an inhibition at 10 µM in data set [1] (1 h) of 33 ± 15%. Further, the inhibition at 0.01 µM in data set [2] came to 56 ± 9%.
